Experimental data reported in patent US5118665A, “Anti-oxidative and anti-inflammatory metal:peptide complexes and uses thereof” (ProCyte Corporation, priority 1990, dated 1992).
Where two headings read alike, the source gives them in different places. One block for each substance: values may come before it.

Columns and labels:
Format in all cases: biochemical
superoxide anion = experiment: Superoxide dismutase mimetic activity, xanthine oxidase/NBT method; settings: for IC50: read-out: CONC. FOR 50% INHIB.; for CONC. FOR 50% INHIB.: Table 4, ratio 2:1 (binary) or 1:1:1 (ternary with chelating agent), ug copper(II) added per reaction
Experimental: The reactions contained the following: 100 uM xanthine, 56 uM NBT (nitro blue tetrazolium) 1 unit of catalase, and 50 mM potassium phosphate buffer, pH 7.8. The reaction was initiated by the addition of xanthine oxidase in sufficient quantity to obtain an increase in absorbance at 560 nm of approximately 0.025/min. in a total sample volume of 1.7 ml. The xanthine oxidase was prepared fresh daily and stored on ice until used. All the components of the reaction are added except the xanthine oxidase and the spectrophotometer was adjusted to zero at 560 nm. The reaction was initiated by the addition of the xanthine oxidase. All reagents were obtained from Sigma Chemical Co.
Measurements of the absorbance at 560 nm were taken at 1-2 minute intervals for at least 16 minutes following addition of xanthine oxidase. A control consisted of reactions containing no metal:peptide complex.
All complexes were tested at a 2:1 molar ratio of peptide to metal. It should be noted that the absolute value found in enzymatic assays for SOD mimetic activity varries depending upon the enzyme lot used in the evaluation. Thus, the inclusion of GHL-Cu permits comparisons from experiment to experiment based on a normalized activity relative to GHL-Cu.
In this example, superoxide dismutase was measured by the xanthine oxidase/NBT method as described in Example 13. Each complex was tested relative to GHL-Cu assayed at the same time. All complexes were tested at a 2:1 molar ratio of peptide to metal.
In this example, superoxide dismutase was measured by the xanthine oxidase/NBT method as described in Example 13. Each compound was tested relative to GHL-Cu assayed at the same time. All complexes were tested at a 2:1 molar ratio of peptide to metal.
In this example, superoxide dismutase was measured by the xanthine oxidase/NBT method as described in Example 13. Each compound was tested relative to GHL-Cu or glycyl-L-histidyl-L-lysyl-L-valyl-L-phenylalanyl-valine:copper(II) ("GHLVFV-Cu") assayed at the same time. In this example, the amount of complex for 50% inhibition is expressed as ug copper(II) added per reaction necessary to achieve 50% inhibition of the control reaction.
In this example, superoxide dismutase was measured by the xanthine oxidase/NBT method as described in Example 13. Each compound was tested relative to GHL-Cu assayed at the same time.

ferritin = experiment: Inhibition of ferritin iron release (bathophenanthroline disulfonate, A535); settings: 10 um complex, peptide:metal 1:1; for RATE INC. A535 nm min: 200 uM ferritin, no addition = 0.0060; for PERCENT INHIBITION: versus reaction with no additions
Experimental: (§1) Iron release from ferritin was measured by incubating ferritin with 10 um of a metal:peptide complexes of the present invention and determining the amount of iron released. Reaction mixtures contained 0.33 mM xanthine, 25 mU/ml xanthine oxidase, and 90 U/ml catalase as described in Example 13. In addition, 200 uM ferritin was added as a source of iron and 150 uM bathophenanthroline disulfonate to chelate and released iron. The release of iron was measured as an increase in the absorption of 535 nm due to the ironbathophenanthroline complex. The data is presented in Table 6 as this absorption rate and as a percent inhibition of a reaction with no additions. All the metal:peptide complexes are at a molar ratio of peptide to metal of 1:1.

[1] = test system: liposomes prepared from rat liver lipids; experiment: Inhibition of ferritin and superoxide anion dependent lipid peroxidation (MDA formation); settings: peptide:metal 1:1; for RATE nmole MDA/min/ml: incubations as Example 18, no addition = 0.220 (A), 0.150 (B); for PERCENT INHIBITION: versus reaction with no additions
Experimental: as §1
Lipid peroxidation was measured by determining the oxidation of lipids in liposomes prepared from rat liver lipids. Incubations were as described in Example 18 except that rat liver lipid […] were included. The oxidation was followed by determining the amount of malondialdehyde ("MDA") formed during the reaction. The data is presented in Table 7 as this absorption rate and as a percent inhibition of a reaction with no additions. All the metal:peptide complexes are at a molar ratio of peptide to metal of 1:1.

[2] = Table 2, GHL:Cu of the same experiment = 100, peptide:metal 2:1
[3] = Table 2, peptide:metal 2:1, experiments A-G, each with its own GHL:Cu control
[4] = Table 3, ratio 2:1, copper(II) versus manganese(II), experiments A, B
[5] = Table 3, ratio 2:1, reference of the same experiment = 100
[6] = Table 1, GHL:Cu of the same experiment = 100, peptide:metal 2:1
[7] = Table 1, peptide:metal 2:1, pH 7.8, experiments A-E, each with its own GHL:Cu control
[8] = Table 4 experiment A, GHL:Cu 2:1 = 100
[9] = Table 5, GHL:Cu of the same experiment = 100, ratio 2:1
[10] = Table 5, ratio 2:1, albumin binding moieties, experiments A, B
[11] = Table 4 experiment B, GHLVFV:Cu 2:1 = 100

RELATIVE to GHL-Cu (superoxide anion; [9]): 4700
IC50 (superoxide anion; [10]): 1 µM
Substance: glycylL-histidyl-L-lysyl-L-tryptophan:copper(II) [GHLW:Cu]

RELATIVE to GHL-Cu (superoxide anion; [6]): 229
IC50 (superoxide anion; [7]): 23 µM
CONC. FOR 50% INHIB. (superoxide anion): 2.8 ug copper(II) per reaction
RELATIVE to GHL-Cu (superoxide anion; [11]): 100
Substance: glycylL-histidyl-L-lysyl-L-valyl-L-phenylalanyl-L-valine:copper(II) [GHLVFV:Cu]
RATE INC. A535 nm min (ferritin): 0.0011 A535 nm min
PERCENT INHIBITION (ferritin): 82%
RATE nmole MDA/min/ml [1]: 0.140 nmole MDA/min/ml
PERCENT INHIBITION [1]: 36%

CONC. FOR 50% INHIB. (superoxide anion): 0.2 ug copper(II) per reaction
RELATIVE to GHL-Cu (superoxide anion; [11]): 1400
Substance: glycylL-histidyl-L-lysyl-L-valyl-L-phenylalanyl-L-valine:copper(II):histiine [GHLVFV:Cu:H]

CONC. FOR 50% INHIB. (superoxide anion): 0.3 ug copper(II) per reaction
RELATIVE to GHL-Cu (superoxide anion; [11]): 930
Substance: glycylL-histidyl-L-lysyl-L-valyl-L-phenylalanyl-L-valine:copper(II):imidaole [GHLVFV:Cu:Im]

RELATIVE to GHL-Cu (superoxide anion; [2]): 75
IC50 (superoxide anion; [3]): 20 µM
Substance: glycylL-lysyl-L-histidine:copper(II) [GLH:Cu]

IC50 (superoxide anion; [4]): 6 µM
RELATIVE to GHL-Cu (superoxide anion; [5]): 2000
Substance: glycylL-lysyl-L-histidine:manganese(II) [GLH:Mn]

RELATIVE to GHL-Cu (superoxide anion; [2]): 21
IC50 (superoxide anion; [3]): 70 µM
Substance: lysylL-histidyl-L-glycine amide:copper(II) [LHG-Amide:Cu]

RELATIVE to GHL-Cu (superoxide anion; [6]): 60
IC50 (superoxide anion; [7]): 10 µM
Substance: lysylL-histidyl-L-glycine noctyl ester:copper(II) [LHG-Octyl Ester:Cu]

RELATIVE to GHL-Cu (superoxide anion; [6]): 46
IC50 (superoxide anion; [7]): 13 µM
Substance: lysylL-histidyl-glycyl-L-valyl-L-phenylalanyl-L-valine:copper(II) [LHGVFV:Cu]

More lines, now with the values behind:

Substance: Lhistidyl-glycyl-L-lysine:copper(II) [HGL:Cu]
RELATIVE to GHL-Cu (superoxide anion; [2]): 22300
IC50 (superoxide anion; [3]): 0.3 µM
RATE INC. A535 nm min (ferritin): 0.0008 A535 nm min
PERCENT INHIBITION (ferritin): 87%
RATE nmole MDA/min/ml [1]: 0.020 nmole MDA/min/ml
PERCENT INHIBITION [1]: 87%

Substance: Lhistidyl-glycyl-L-lysine:manganese(II) [HGL:Mn]
IC50 (superoxide anion; [4]): 2 µM
RELATIVE to GHL-Cu (superoxide anion; [5]): 2000

Substance: alanylL-histidyl-L-lysine:copper(II) [AHL:Cu]
RELATIVE to GHL-Cu (superoxide anion; [2]): 563
IC50 (superoxide anion; [3]): 6 µM

Substance: alanylL-histidyl-L-lysine:manganese(II) [AHL:Mn]
IC50 (superoxide anion; [4]): 6 µM
RELATIVE to GHL-Cu (superoxide anion; [5]): 667

Substance: glycyl-L-histidyl-L-lysine n-octyl ester:copper(II) [GHL-Octyl Ester:Cu]
RELATIVE to GHL-Cu (superoxide anion; [6]): 810
IC50 (superoxide anion; [7]): 7 µM
IC50 (superoxide anion; [4]): 11 µM
RELATIVE to GHL-Cu (superoxide anion; [5]): 100
RATE INC. A535 nm min (ferritin): 0.0012 A535 nm min
PERCENT INHIBITION (ferritin): 80%
RATE nmole MDA/min/ml [1]: 0.060 nmole MDA/min/ml
PERCENT INHIBITION [1]: 73%

Substance: glycyl-L-histidyl-L-lysine:copper(II) [GHL:Cu, reference compound]
RELATIVE to GHL-Cu (superoxide anion; [6]): 100
RELATIVE to GHL-Cu (superoxide anion; [2]): 100
RELATIVE to GHL-Cu (superoxide anion; [5]): 100
CONC. FOR 50% INHIB. (superoxide anion): 3.2 ug copper(II) per reaction
RELATIVE to GHL-Cu (superoxide anion; [8]): 100
RELATIVE to GHL-Cu (superoxide anion; [9]): 100
RATE INC. A535 nm min (ferritin): 0.0016 A535 nm min
PERCENT INHIBITION (ferritin): 73%
RATE nmole MDA/min/ml [1]: 0.084 nmole MDA/min/ml
PERCENT INHIBITION [1]: 62%

Substance: glycylL-(3-benzyl)-histidyl-L-lysine:copper(II) [G(3-Benzyl)HL:Cu]
RELATIVE to GHL-Cu (superoxide anion; [2]): 145
IC50 (superoxide anion; [3]): 33 µM

Substance: glycylL-(3-methyl)-histidyl-L-lysine:copper(II) [G(3-Methyl)HL:Cu]
RELATIVE to GHL-Cu (superoxide anion; [2]): 616
IC50 (superoxide anion; [3]): 8 µM
RATE INC. A535 nm min (ferritin): 0.0010 A535 nm min
PERCENT INHIBITION (ferritin): 83%
RATE nmole MDA/min/ml [1]: 0.104 nmole MDA/min/ml
PERCENT INHIBITION [1]: 31%

Substance: glycylL-(3-methyl)-histidyl-L-lysyl-glycyl-L-tryptophan:copper(II) [G(3-Methyl)HLGW:Cu]
RELATIVE to GHL-Cu (superoxide anion; [9]): 521
IC50 (superoxide anion; [10]): 11 µM

Substance: glycylL-histidyl-L-lysine noctyl amide:copper(II) [GHL-Octyl Amide:Cu]
RELATIVE to GHL-Cu (superoxide anion; [6]): 182
IC50 (superoxide anion; [7]): 17 µM

Substance: glycylL-histidyl-L-lysine noctyl ester:manganese(II) [GHL-Octyl:Mn]
IC50 (superoxide anion; [4]): 2 µM
RELATIVE to GHL-Cu (superoxide anion; [5]): 611

Substance: glycylL-histidyl-L-lysine npalmityl ester:copper(II) [GHL-Palmityl Ester:Cu]
RELATIVE to GHL-Cu (superoxide anion; [6]): 231
IC50 (superoxide anion; [7]): 24 µM

Substance: glycylL-histidyl-L-lysine:copper(II):histidine [GHL:Cu:H]
CONC. FOR 50% INHIB. (superoxide anion): 0.2 ug copper(II) per reaction
RELATIVE to GHL-Cu (superoxide anion; [8]): 1600

Substance: glycylL-histidyl-L-lysine:copper(II):imidazole [GHL:Cu:Im]
CONC. FOR 50% INHIB. (superoxide anion): 1.3 ug copper(II) per reaction
RELATIVE to GHL-Cu (superoxide anion; [8]): 246

Substance: glycylL-histidyl-L-lysyl-L-alanyl-L-phenylalanyl-L-alanine:copper(II) [GHLAFA:Cu]
RELATIVE to GHL-Cu (superoxide anion; [6]): 561
IC50 (superoxide anion; [7]): 10 µM

Substance: glycylL-histidyl-cadaverine:copper(II) [GHCadaverine:Cu]
RELATIVE to GHL-Cu (superoxide anion; [2]): 118
IC50 (superoxide anion; [3]): 17 µM

Substance: lysylL-histidyl-caprolactam:copper(II) [GHCaprolactam:Cu]
RELATIVE to GHL-Cu (superoxide anion; [2]): 4500
IC50 (superoxide anion; [3]): 0.8 µM
